According to US9822105B2, “Diaminotriazine compounds as herbicides” (BASF SE, priority 2014, dated 2017):

Experiments:
[1] = tested on: AMARE; test: Greenhouse test, pre-emergence treatment; type: in vivo, Amaranthus retroflexus; details: for pest or weed control at 250 g/ha / pest or weed control at 125 g/ha / pest or weed control at 500 g/ha: Amaranthus retroflexus; for pest or weed control at 250 g/ha: read-out: herbicidal activity, 250 g/ha; for pest or weed control at 125 g/ha: read-out: herbicidal activity, 125 g/ha; for pest or weed control at 500 g/ha: read-out: herbicidal activity, 500 g/ha
Text: (§1) The seeds of the test plants were sown separately for each species. For the pre-emergence treatment, the active ingredients, which had been suspended or emulsified in water, were applied directly after sowing by means of finely distributing nozzles. The containers were irrigated gently to promote germination and growth and subsequently covered with transparent plastic hoods until the plants had rooted. This cover caused uniform germination of the test plants, unless this had been impaired by the active ingredients. Depending on the species, the plants were kept at 10-25° C. or 20-35° C., respectively. The test period extended over 2 to 4 weeks. During this time, the plants were tended, and their response to the individual treatments was evaluated. Evaluation was carried out using a scale from 0 to 100. 100 means no emergence of the plants, or complete destruction of at least the aerial moieties, and 0 means no damage, or normal course of growth. […] The plants used in the greenhouse experiments were of the following species: [table]

[2] = tested on: ABUTH; test: Greenhouse test, pre-emergence treatment; type: in vivo, Abutilon theophrasti
Text: as §1

[3] = tested on: ECHCG; test: Greenhouse test, pre-emergence treatment; type: in vivo, Echinocloa crus-galli
Text: as §1

[4] = tested on: SETFA; test: Greenhouse test, pre-emergence treatment; type: in vivo, Setaria faberi
Text: as §1

[5] = tested on: ALOMY; test: Greenhouse test, pre-emergence treatment; type: in vivo, Alopecurus myosuroides; details: 0.5 kg/ha
Text: as §1

[6] = tested on: AMARE; test: Greenhouse test, post-emergence treatment; type: in vivo, Amaranthus retroflexus; details: 500 g/ha
Text: The seeds of the test plants were sown separately for each species. For the post-emergence treatment, the test plants were first grown to a height of […], depending on the plant habit, and only then treated with the active ingredients which had been suspended or emulsified in water. For this purpose, the test plants were either sown directly and grown in the same containers, or they were first grown separately as seedlings and transplanted into the test containers a few days prior to treatment. Depending on the species, the plants were kept at 10-25° C. or 20-35° C., respectively. The test period extended over 2 to 4 weeks. During this time, the plants were tended, and their response to the individual treatments was evaluated. Evaluation was carried out using a scale from 0 to 100. 100 means no emergence of the plants, or complete destruction of at least the aerial moieties, and 0 means no damage, or normal course of growth. […] The plants used in the greenhouse experiments were of the following species: [table]

CC1Oc2ccc(Cl)c(Nc3nc(N)nc(C(C)(C)F)n3)c2O1 (racemic) [Example 12]
herbicidal activity ([1]; 250 g/ha): very good (a very good herbicidal activity is given at values of at least 85)
herbicidal activity ([2]; 250 g/ha): very good (a very good herbicidal activity is given at values of at least 85)
herbicidal activity ([3]; 250 g/ha): very good (a very good herbicidal activity is given at values of at least 85)

CCC(C)c1nc(N)nc(Nc2c(F)ccc3c2OCO3)n1 (racemic) [Example 16]
herbicidal activity ([1]; 125 g/ha): very good (a very good herbicidal activity is given at values of at least 85)
herbicidal activity ([2]; 125 g/ha): good (a good herbicidal activity is given at values of at least 70)

CC1CCCN1c1nc(N)nc(Nc2c(F)ccc3c2OCO3)n1 (racemic) [Example 19]
herbicidal activity ([1]; 500 g/ha): very good (a very good herbicidal activity is given at values of at least 85)

COC(C)c1nc(N)nc(Nc2c(F)ccc3c2OCO3)n1 (racemic) [Example 32]
herbicidal activity ([1]; 125 g/ha): good (a good herbicidal activity is given at values of at least 70)
herbicidal activity ([2]; 125 g/ha): good (a good herbicidal activity is given at values of at least 70)

CCC(F)c1nc(N)nc(Nc2c(F)ccc3c2OCO3)n1 (racemic) [Example 33]
herbicidal activity ([1]; 125 g/ha): very good (a very good herbicidal activity is given at values of at least 85)

CC1Oc2ccc(F)c(Nc3nc(N)nc(C(C)(C)F)n3)c2O1 (single isomer, unassigned) [Example 7]
herbicidal activity ([1]; 250 g/ha): very good (a very good herbicidal activity is given at values of at least 85)
herbicidal activity ([4]; 250 g/ha, SETFA): very good (a very good herbicidal activity is given at values of at least 85)
herbicidal activity ([2]; 250 g/ha): very good (a very good herbicidal activity is given at values of at least 85)

CC1Oc2ccc(F)c(Nc3nc(N)nc(C(C)(C)F)n3)c2O1 (single isomer, unassigned) [Example 8]
herbicidal activity ([1]; 250 g/ha): very good (a very good herbicidal activity is given at values of at least 85)
herbicidal activity ([4]; 250 g/ha, SETFA): very good (a very good herbicidal activity is given at values of at least 85)
herbicidal activity ([2]; 250 g/ha): very good (a very good herbicidal activity is given at values of at least 85)

CC1Oc2ccc(F)c(Nc3nc(N)nc(C(C)(C)F)n3)c2O1 (single isomer, unassigned) [Example 35]
herbicidal activity ([3]; 250 g/ha): very good (a very good herbicidal activity is given at values of at least 85)

CC(C)(F)c1nc(N)nc(Nc2c(Cl)ccc3c2OCO3)n1 [Example 2]
herbicidal activity ([1]; 0.5 kg/ha): very good (a very good herbicidal activity is given at values of at least 85)
herbicidal activity ([4]; 0.5 kg/ha, SETFA): very good (a very good herbicidal activity is given at values of at least 85)
herbicidal activity [5]: very good (a very good herbicidal activity is given at values of at least 85)

CC(C)(F)c1nc(N)nc(Nc2c(Br)c(Br)cc3c2OCO3)n1 [Example 4]
herbicidal activity ([2]; 125 g/ha): good (a good herbicidal activity is given at values of at least 70)

Nc1nc(Nc2c(F)ccc3c2OCO3)nc(C2(Cl)CCC2)n1 [Example 5]
pest or weed control at 250 g/ha [1]: ≥ 85%
herbicidal activity ([4]; 250 g/ha, SETFA): very good (a very good herbicidal activity is given at values of at least 85)
herbicidal activity ([3]; 250 g/ha): very good (a very good herbicidal activity is given at values of at least 85)

Nc1nc(Nc2c(Br)ccc3c2OC(F)(F)O3)nc(C2(Cl)CCCC2)n1 [Example 9]
herbicidal activity [6]: very good (a very good herbicidal activity is given at values of at least 85)

CC1(C)Oc2ccc(Cl)c(Nc3nc(N)nc(C(C)(C)F)n3)c2O1 [Example 11]
herbicidal activity ([1]; 250 g/ha): very good (a very good herbicidal activity is given at values of at least 85)
herbicidal activity ([2]; 250 g/ha): very good (a very good herbicidal activity is given at values of at least 85)
herbicidal activity ([3]; 250 g/ha): very good (a very good herbicidal activity is given at values of at least 85)

CC1(C)Oc2ccc(F)c(Nc3nc(N)nc(C(C)(C)F)n3)c2O1 [Example 14]
herbicidal activity ([1]; 250 g/ha): very good (a very good herbicidal activity is given at values of at least 85)
herbicidal activity ([2]; 250 g/ha): very good (a very good herbicidal activity is given at values of at least 85)
herbicidal activity ([3]; 250 g/ha): very good (a very good herbicidal activity is given at values of at least 85)

Nc1nc(Nc2c(F)ccc3c2OCO3)nc(C2(F)CCCC2)n1 [Example 15]
herbicidal activity ([1]; 250 g/ha): very good (a very good herbicidal activity is given at values of at least 85)
herbicidal activity ([4]; 250 g/ha, SETFA): very good (a very good herbicidal activity is given at values of at least 85)
herbicidal activity ([2]; 250 g/ha): very good (a very good herbicidal activity is given at values of at least 85)

CC(C)c1nc(N)nc(Nc2c(F)ccc3c2OCO3)n1 [Example 17]
pest or weed control at 125 g/ha [1]: ≥ 85%
herbicidal activity ([2]; 125 g/ha): good (a good herbicidal activity is given at values of at least 70)

Nc1nc(Nc2c(F)ccc3c2OCO3)nc(N2CCCC2)n1 [Example 20]
pest or weed control at 500 g/ha [1]: ≥ 85%

COC1(c2nc(N)nc(Nc3c(F)ccc4c3OCO4)n2)CCCCC1 [Example 23]
pest or weed control at 125 g/ha [1]: ≥ 85%
herbicidal activity ([4]; 125 g/ha, SETFA): good (a good herbicidal activity is given at values of at least 70)
herbicidal activity ([3]; 125 g/ha): good (a good herbicidal activity is given at values of at least 70)

CC(C)(C)Cc1nc(N)nc(Nc2c(F)ccc3c2OCO3)n1 [Example 24]
herbicidal activity ([1]; 125 g/ha): very good (a very good herbicidal activity is given at values of at least 85)
herbicidal activity ([2]; 125 g/ha): very good (a very good herbicidal activity is given at values of at least 85)
herbicidal activity ([3]; 125 g/ha): very good (a very good herbicidal activity is given at values of at least 85)

CON(C)c1nc(N)nc(Nc2c(F)ccc3c2OCO3)n1 [Example 25]
herbicidal activity ([1]; 500 g/ha): very good (a very good herbicidal activity is given at values of at least 85)

CC(C)Cc1nc(N)nc(Nc2c(F)ccc3c2OCO3)n1 [Example 26]
herbicidal activity ([1]; 125 g/ha): very good (a very good herbicidal activity is given at values of at least 85)
herbicidal activity ([4]; 125 g/ha, SETFA): good (a good herbicidal activity is given at values of at least 70)
herbicidal activity ([3]; 125 g/ha): good (a good herbicidal activity is given at values of at least 70)

Nc1nc(Nc2c(F)ccc3c2OCO3)nc(C2CCCCC2)n1 [Example 27]
pest or weed control at 125 g/ha [1]: ≥ 85%
herbicidal activity ([4]; 125 g/ha, SETFA): good (a good herbicidal activity is given at values of at least 70)

Nc1nc(Nc2c(F)ccc3c2OCO3)nc(C2CCCC2)n1 [Example 28]
pest or weed control at 125 g/ha [1]: ≥ 85%
herbicidal activity ([3]; 125 g/ha): good (a good herbicidal activity is given at values of at least 70)

CC(C)(C)c1nc(N)nc(Nc2c(F)ccc3c2OCO3)n1 [Example 29]
pest or weed control at 125 g/ha [1]: ≥ 85%
herbicidal activity ([2]; 125 g/ha): very good (a very good herbicidal activity is given at values of at least 85)
herbicidal activity ([3]; 125 g/ha): very good (a very good herbicidal activity is given at values of at least 85)

CC(C)(F)c1nc(N)nc(Nc2c(Cl)c(Cl)cc3c2OCO3)n1 [Example 31]
herbicidal activity ([1]; 125 g/ha): very good (a very good herbicidal activity is given at values of at least 85)
herbicidal activity ([4]; 125 g/ha, STEFTA): very good (a very good herbicidal activity is given at values of at least 85)
herbicidal activity ([3]; 125 g/ha): good (a good herbicidal activity is given at values of at least 70)

Cn1c(=O)oc2c(Nc3nc(N)nc(C(C)(C)F)n3)c(F)ccc21 [Example 38]
herbicidal activity ([1]; 500 g/ha): very good (a very good herbicidal activity is given at values of at least 85)

CC(C)(F)c1nc(N)nc(Nc2c(F)ccc3ncoc23)n1 [Example 39]
pest or weed control at 250 g/ha [1]: ≥ 85%
herbicidal activity ([2]; 250 g/ha): very good (a very good herbicidal activity is given at values of at least 85)

CC(C)(F)c1nc(N)nc(Nc2c(F)ccc3c2CCC3)n1 [Example 41]
pest or weed control at 500 g/ha [1]: ≥ 85%

CC(C)(F)c1nc(N)nc(Nc2c(Cl)ccc3c2OCCO3)n1 [Example 42]
pest or weed control at 125 g/ha [1]: ≥ 85%

CC(C)(F)c1nc(N)nc(Nc2c(F)ccc3c2OCCO3)n1 [Example 43]
pest or weed control at 500 g/ha [1]: ≥ 85%

CC(C)(F)c1nc(N)nc(Nc2c(Cl)ccc3c2OC=CO3)n1 [Example 44]
pest or weed control at 500 g/ha [1]: ≥ 85%
herbicidal activity ([3]; 500 g/ha): very good (a very good herbicidal activity is given at values of at least 85)

CC(C)(F)c1nc(N)nc(Nc2c(F)ccc3c2OC=CO3)n1 [Example 45]
pest or weed control at 125 g/ha [1]: ≥ 85%
herbicidal activity ([2]; 125 g/ha): very good (a very good herbicidal activity is given at values of at least 85)

CC(C)(F)c1nc(N)nc(Nc2c(Cl)ccc3c2CCC3)n1 [Example 47]
herbicidal activity ([2]; 250 g/ha): good (a good herbicidal activity is given at values of at least 70)
herbicidal activity ([3]; 250 g/ha): good (a good herbicidal activity is given at values of at least 70)
